{"source": "patent US20160046592A1", "about": "“PHARMACEUTICAL COMPOSITION FOR THE TREATMENT OF DIABETES” (Ajinomoto Co., Inc., priority 2013, published 2016)", "note": "Structures can show the parent of a compound that is named as a salt.", "data": [{"molecular_target": "T1, PPAR-α (Homo sapiens, UniProt Q07869)", "T1 construct": "expressed in transfected cells; host or cells: CV-1 (African green monkey kidney)", "T1 sequence (Q07869 167-468)": "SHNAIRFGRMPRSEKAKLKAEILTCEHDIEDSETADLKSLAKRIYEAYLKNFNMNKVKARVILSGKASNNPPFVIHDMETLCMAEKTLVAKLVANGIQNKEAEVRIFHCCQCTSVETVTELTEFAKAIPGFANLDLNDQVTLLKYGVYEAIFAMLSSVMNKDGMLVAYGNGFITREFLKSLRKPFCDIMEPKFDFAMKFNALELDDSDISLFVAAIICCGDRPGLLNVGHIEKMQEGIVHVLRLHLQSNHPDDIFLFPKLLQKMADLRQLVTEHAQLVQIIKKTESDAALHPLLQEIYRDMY", "assay": "Measurement of PPAR-α activity (GAL4 luciferase reporter assay in CV-1 cells)", "assay_type": "cell-based", "conditions": "100(A/B): A = maximum PPAR-α activity of test compound at 3, 10, 30 and 100 μM, B = activity of the compound of WO/2011/058154 at 100 μM, 18 to 20 hours", "protocol": "(§1) The PPAR-α activity was measured according to the published article (THE JOURNAL OF BIOLOGICAL CHEMISTRY Vol. 270, No 0.22: 12953-12956, 1995).\n(§2) Plasmids used for the PPAR-α activity measurement were constructed as follows. A luciferase expression plasmid (UAS×5-TK-Luc) used was obtained by introducing a sequence in which five yeast GAL4-binding sequences are linked in tandem into a portion upstream of a thymidine kinase promoter of pTAL-Luc (Takara Bio Inc., 6252-1). A PPAR-α receptor expression plasmid (hGR-GAL4-hPPARα) used was obtained by introducing a human GR N-terminal region (1-76aa), a yeast GAL4 DNA-binding region (1-147aa), and a PPARα ligand-binding region (167-468aa) between Not I and Sal I sites of pExchange-1 Core Vector (Invitrogen, 211176).\n(§3) A reporter assay was conducted by the following method using African green monkey kidney-derived CV-1 cells. The CV-1 cells were seeded in a 96-well plate (Thermo Fisher Scientific K.K., 4938) at 2×10^4 cells/well by using a 10% FBS-containing DMEM (NACALAI TESQUE, INC., 0845874) medium. After culturing under conditions of 37° C. and 5% CO2 for 2 hours, the cells were transfected with the plasmids. The transfection was conducted by using Lipofectamine LTX (Invitrogen, 15338-100) according to the attached manual. The plasmid solution was prepared by adding a mixture solution of the luciferase expression plasmid and the PPAR-α receptor expression plasmid to OPTI-MEM I (Invitrogen, 11058-021). After the transfection, the test compound was added, and the cells were cultured at 37° C. in the presence of 5% CO2 for 18 to 20 hours. After the culturing, the luciferase activity was measured with Luminescensor JNR (ATTO) by using Bright-Glo (Promega, E2620).\n(§4) The fold induction of PPAR-α by each test compound was calculated by the following method. A relative fold induction (%) of PPAR-α by the test compound was defined as 100 (A/B), where A represents the maximum value of the PPAR-α activities of the test compound at 3 μM, 10 μM, 30 μM, and 100 μM, and B represents the PPAR-α activity of the compound of WO/2011/058154 at 100 μM.", "units": {"Relative fold induction (%) of PPAR α": "%"}, "values": [{"compound": "NC(=O)C1CC[C@@H](C(=O)O)N1C(=O)c1cccc(COc2ccc(-c3cc(F)c(F)c4ccoc34)cc2)c1", "note": "(single isomer, unassigned) [Example 4, (2S,5R) or (2S,5S)-5-Carbamoyl-1-[3-[[4-(4,5-difluorobenzofuran-7-yl)phenoxy]methyl]benzoyl]pyrrolidine-2-carboxylic Acid]", "Relative fold induction (%) of PPAR α": 10}, {"compound": "CSc1cc(F)c(F)cc1-c1ccc(OCc2cccc(C(=O)N3C(C(N)=O)CC[C@H]3C(=O)O)c2)cc1", "note": "(single isomer, unassigned) [Example 58, (2S,5S) or (2S,5R)-5-Carbamoyl-1-[3-[[4-(4,5-difluoro-2-methylsulfanyl-phenyl)phenoxy]methyl]benzoyl]pyrrolidine-2-carboxylic Acid]", "Relative fold induction (%) of PPAR α": 7.8}, {"compound": "NC(=O)C1CC[C@@H](C(=O)O)N1C(=O)c1cccc(COc2ccc(-c3cc(F)c(F)c4ccoc34)cc2)c1", "note": "(single isomer, unassigned) [Example 76, (2S,5S) or (2S,5R)-5-Carbamoyl-1-[3-[[4-(4,5-difluorobenzofuran-7-yl)phenoxy]methyl]benzoyl]pyrrolidine-2-carboxylic Acid]", "Relative fold induction (%) of PPAR α": 42}]}, {"molecular_target": "T1, PPAR-α", "assay": "Measurement of PPAR-α activity (GAL4 luciferase reporter assay in CV-1 cells)", "assay_type": "cell-based", "conditions": "100(A/B): A = maximum PPAR-α activity of test compound at 3, 10, 30 and 100 μM, B = activity of the compound of WO/2011/058154 at 100 μM, 18 to 20 hours, read-out: Relative fold induction (%) of PPAR α", "protocol": "as §1, §2, §3, §4", "units": {"Emax": "%"}, "values": [{"compound": "CSc1cc(F)c(F)cc1-c1ccc(OCc2cccc(C(=O)N3C(C(N)=O)CC[C@H]3C(=O)O)c2)cc1", "note": "(single isomer, unassigned) [Example 57, (2S,5R) or (2S,5S)-5-Carbamoyl-1-[3-[[4-(4,5-difluoro-2-methylsulfanyl-phenyl)phenoxy]methyl]benzoyl]pyrrolidine-2-carboxylic Acid]", "Emax": 6.7}, {"compound": "COC1CCN(C(=O)c2cccc(COc3ccc(-c4cc(F)c(F)cc4SC)cc3)c2)C1C(=O)O", "note": "(stereo in doubt) [Example 33, (2S,3S)-1-[3-[[4-(4,5-Difluoro-2-methylsulfanyl-phenyl)phenoxy]methyl]benzoyl]-3-methoxy-pyrrolidine-2-carboxylic Acid]", "Emax": 13}, {"compound": "NC(=O)CN(CC(=O)O)C(=O)c1cccc(COc2ccc(-c3cc(F)c(F)c4ccoc34)cc2)c1", "note": "[Example 1, 2-[(2-Amino-2-oxo-ethyl)-[3-[[4-(4,5-difluorobenzofuran-7-yl)phenoxy]methyl]benzoyl]amino]acetic Acid]", "Emax": 12}, {"compound": "O=C(O)[C@@H]1[C@@H](O)CCN1C(=O)c1cccc(COc2ccc(-c3cc(F)c(F)c4ccoc34)cc2)c1", "note": "[Example 2, (2S,3S)-1-[3-[[4-(4,5-Difluorobenzofuran-7-yl)phenoxy]methyl]benzoyl]-3-hydroxy-pyrrolidine-2-carboxylic Acid]", "Emax": 5}, {"compound": "O=C(O)[C@@H]1[C@H](O)CCN1C(=O)c1cccc(COc2ccc(-c3cc(F)c(F)c4ccoc34)cc2)c1", "note": "[Example 3, (2S,3R)-1-[3-[[4-(4,5-Difluorobenzofuran-7-yl)phenoxy]methyl]benzoyl]-3-hydroxy-pyrrolidine-2-carboxylic Acid]", "Emax": 11}, {"compound": "CSc1cc(F)c(F)cc1-c1ccc(OCc2cccc(C(=O)N3CC[C@H](O)[C@H]3C(=O)O)c2)cc1", "note": "[Example 5, (2S,3S)-1-[3-[[4-(4,5-Difluoro-2-methylsulfanyl-phenyl)phenoxy]methyl]benzoyl]-3-hydroxy-pyrrolidine-2-carboxylic Acid]", "Emax": 10}, {"compound": "CSc1cc(F)c(F)cc1-c1ccc(OCc2cccc(C(=O)N(CCC#N)CC(=O)O)c2)cc1", "note": "[Example 7, 2-[2-Cyanoethyl-[3-[[4-(4,5-difluoro-2-methylsulfanyl-phenyl)phenoxy]methyl]benzoyl]amino]acetic Acid]", "Emax": 16}, {"compound": "CS(=O)(=O)CCN(CC(=O)O)C(=O)c1cccc(COc2ccc(-c3cc(F)c(F)c4ccoc34)cc2)c1", "note": "[Example 8, 2-[[3-[[4-(4,5-Difluorobenzofuran-7-yl)phenoxy]methyl]benzoyl]-(2-methylsulfonylethyl)amino]acetic Acid]", "Emax": 11}, {"compound": "O=C(O)CN(CC1CCOCC1)C(=O)c1cccc(COc2ccc(-c3cc(F)c(F)c4ccoc34)cc2)c1", "note": "[Example 9, 2-[[3-[[4-(4,5-Difluorobenzofuran-7-yl)phenoxy]methyl]benzoyl]-(tetrahydropyran-4-ylmethyl)amino]acetic Acid]", "Emax": 24}, {"compound": "CSc1cc(F)c(F)cc1-c1ccc(OCc2cccc(C(=O)N(CC(N)=O)CC(=O)O)c2)cc1", "note": "[Example 10, 2-[(2-Amino-2-oxo-ethyl)-[3-[[4-(4,5-difluoro-2-methylsulfanyl-phenyl)phenoxy]methyl]benzoyl]amino]acetic Acid]", "Emax": 6.7}, {"compound": "CN(C)C(=O)CN(CC(=O)O)C(=O)c1cccc(COc2ccc(-c3cc(F)c(F)c4ccoc34)cc2)c1", "note": "[Example 11, 2-[[3-[[4-(4,5-Difluorobenzofuran-7-yl)phenoxy]methyl]benzoyl]-[2-(dimethylamino)-2-oxo-ethyl]amino]acetic Acid]", "Emax": 7.4}, {"compound": "O=C(O)CN(CC1CCNCC1)C(=O)c1cccc(COc2ccc(-c3cc(F)c(F)c4ccoc34)cc2)c1", "note": "[Example 12, 2-[[3-[[4-(4,5-Difluorobenzofuran-7-yl)phenoxy]methyl]benzoyl]-(4-piperidylmethyl)amino]acetic Acid Trifluoroacetate]", "Emax": 4.7}, {"compound": "CN(C)CCN(CC(=O)O)C(=O)c1cccc(COc2ccc(-c3cc(F)c(F)c4ccoc34)cc2)c1", "note": "[Example 13, 2-[[3-[[4-(4,5-Difluorobenzofuran-7-yl)phenoxy]methyl]benzoyl]-(2-dimethylaminoethyl)amino]acetic Acid Trifluoroacetate]", "Emax": 5.3}, {"compound": "Cc1coc2c(-c3ccc(OCc4cccc(C(=O)N(CCS(C)(=O)=O)CC(=O)O)c4)cc3)cc(F)c(F)c12", "note": "[Example 14, 2-[[3-[[4-(4,5-Difluoro-3-methyl-benzofuran-7-yl)phenoxy]methyl]benzoyl]-(2-methylsulfonylethyl)amino]acetic Acid]", "Emax": 7.5}, {"compound": "CNC(=O)CN(CC(=O)O)C(=O)c1cccc(COc2ccc(-c3cc(F)c(F)c4ccoc34)cc2)c1", "note": "[Example 15, 2-[[3-[[4-(4,5-Difluorobenzofuran-7-yl)phenoxy]methyl]benzoyl]-[2-(methylamino)-2-oxo-ethyl]amino]acetic Acid]", "Emax": 12}, {"compound": "CS(=O)(=O)NCCN(CC(=O)O)C(=O)c1cccc(COc2ccc(-c3cc(F)c(F)c4ccoc34)cc2)c1", "note": "[Example 16, 2-[[3-[[4-(4,5-Difluorobenzofuran-7-yl)phenoxy]methyl]benzoyl]-[2-(methanesulfonamido)ethyl]amino]acetic Acid]", "Emax": 12}, {"compound": "CSc1cc(F)c(F)cc1-c1ccc(OCc2cccc(C(=O)N(CCNS(C)(=O)=O)CC(=O)O)c2)cc1", "note": "[Example 17, 2-[[3-[[4-(4,5-Difluoro-2-methylsulfanyl-phenyl)phenoxy]methyl]benzoyl]-[2-(methanesulfonamido)ethyl]amino]acetic Acid]", "Emax": 13}, {"compound": "CC(C)(O)CCN(CC(=O)O)C(=O)c1cccc(COc2ccc(-c3cc(F)c(F)c4ccoc34)cc2)c1", "note": "[Example 18, 2-[[3-[[4-(4,5-Difluorobenzofuran-7-yl)phenoxy]methyl]benzoyl]-(3-hydroxy-3-methyl-butyl)amino]acetic Acid]", "Emax": 23}, {"compound": "CSc1cc(F)c(F)cc1-c1ccc(OCc2cccc(C(=O)N(CC(=O)O)Cc3ccncc3)c2)cc1", "note": "[Example 19, 2-[[3-[[4-(4,5-Difluoro-2-methylsulfanyl-phenyl)phenoxy]methyl]benzoyl]-(4-pyridylmethyl)amino]acetic Acid Trifluoroacetate]", "Emax": 21}, {"compound": "CSc1cc(F)c(F)cc1-c1ccc(OCc2cccc(C(=O)N(CCC(C)O)CC(=O)O)c2)cc1", "note": "(centres unmarked) [Example 21, 2-[[3-[[4-(4,5-Difluoro-2-methylsulfanyl-phenyl)phenoxy]methyl]benzoyl]-(3-hydroxybutyl)amino]acetic Acid]", "Emax": 15}]}]}
